# Assay results reported in publication PMC2823781, “The X-Ray Crystal Structure of Escherichia coli Succinic Semialdehyde Dehydrogenase; Structural Insights into NADP^+/Enzyme Interactions” (PLoS ONE, 2010).
# Key:
# [1] = molecular target: T1, E. coli SSADH (gabD gene product) (Escherichia coli, UniProt P25526); test: fluorometric NADPH formation (ex […] nm, em […] nm); type: biochemical; details: 1.1 mM NADP+, 100 mM Na phosphate pH 8.0, 30 °C; varied substrate SSA (range printed as 0–400 mM), substrate not named beside Km
# T1 construct: expressed in E. coli BL21(DE3) pLysS; homotetramer, 481 residues per monomer in crystal; single amino acid change versus database gabD, not specified
# [2] = molecular target: Escherichia coli succinic semialdehyde dehydrogenase (gabD gene product, NADP+-dependent) (E. coli) (UniProt P25526); test: SEC; analytical size-exclusion chromatography of purified recombinant SSADH; data not shown
Km [1],stoichiometry N [2],Compound
16.9 ± 2.2 µM,,"O=CCCC(=O)O [SSA, succinic semialdehyde]"
,4,"Escherichia coli succinic semialdehyde dehydrogenase (gabD gene product, NADP+-dependent) (from UniProt P25526 1-482) (enzyme)"
